Source: patent US20220249540A1, “INHALABLE COMPOSITION COMPROMISING CYCLODEXTRIN FOR USE IN THE TREATMENT OF NASAL INFLAMMATIONS” (AQUILON PHARMACEUTICALS SA, priority 2019, published 2022)

Legend:
[1] = tested on: Wistar rats; assay: two-week Dose-Range-Finding (DRF) Inhalation Study, histopathology of the nasal cavities; type: in vivo; settings: for Normal (number of animals with normal nasal cavity histopathology): 3 examined
Experimental: Hydroxypropylbetacyclodextrin (HPBCD) was administered during two-weeks in a Dose-Range-Finding (DRF) Inhalation Study to Wistar rats in three different delivered doses: • low of 20 mg/kg/day and a target atmosphere concentration of 0.3 mg/L, • medium of 60 mg/kg/day and a target atmosphere concentration of 0.9 mg/L, and • […] to each three male and three non-pregnant female rats.
A control group which received control vehicle in the form of citrate buffer was provided with three male and three non-pregnant female rats. After terminal euthanasia, the nasal cavity was removed. Nasal cavities were embedded in paraffin wax, sections were cut at 4-6 μm by microtome and transferred to slides. Tissue sections were stained with haematoxylin-eosin/phloxine and examined by light microscope. Full histopathology of the nasal cavities, as well as the other organs of the respiratory tract, was performed in each group and is shown in FIG. 1. 4 levels of the nasal cavities were examined, among which 1 level included the nasopharyngeal duct and Nasal Associated Lymphoid Tissue (NALT).
Nasal cavities analyzed by histopathology were normal at all exposure levels of HPBCD.

[2] = tested on: goblet cells in nasal mucosa tissue; assay: goblet cells in nasal mucosa tissue of Ovalbumin-sensitized mice (PAS staining); type: in vivo, BALB/c mice; settings: 50 mM in PBS by aerosolization 360 min before each OVA inhalation, Day 22 to 98; control group 50%
Experimental: Eight male and female BALB/c mice (6-8 weeks of age at the beginning of the protocol) were sensitized with Ovalbulmin (OVA) on D1 and D11 by intraperitoneal (i.p.) injection (10 μg grade V OVA diluted in 200 μl PBS), followed by OVA aerosols (10% grade Ill OVA dissolved in PBS buffer −50 ml were aerosolized with ultrasonic nebulizer during 30 minutes in a 30×20×15 cm Plexiglas exposure box where the animals were authorized to breathe and move normally). Aerosol administration was performed 360 min after i.n. treatments with Placebo or hydroxypropyl-gamma-cyclodextrin (HP-gamma-CD) during even weeks from days 22 to 98 (5 days/even week).
Mice were treated from Day 22 to Day 98 (5 days per week even week) with PBS (8 mice in control group) or with hydroxypropyl-gamma-cyclodextrin 50 mM diluted in PBS (8 mice in treated group) by aeorosolization (50 ml were aerosolized during 30 minutes in a Plexiglas exposure box where the animals were authorized to breathe and move normally) 360 min before each OVA inhalation.
On Day 99, the animals were sacrificed. […]
Numbers of goblet cells were counted using digitalized images of histological slides. Three hundred epithelial cells were counted at random and the percentage of positive cells for PAS staining (Goblet cells) was established relative to cells negative for PAS staining.

Row | Molecule | Normal (number of animals with normal nasal cavity histopathology) ([1]; Female, High dosage (180 mg/kg/day)) | Normal (number of animals with normal nasal cavity histopathology) ([1]; Female, Low dosage (20 mg/kg/day)) | Normal (number of animals with normal nasal cavity histopathology) ([1]; Female, Mid dosage (60 mg/kg/day)) | Normal (number of animals with normal nasal cavity histopathology) ([1]; Male, High dosage (180 mg/kg/day)) | Normal (number of animals with normal nasal cavity histopathology) ([1]; Male, Low dosage (20 mg/kg/day)) | Normal (number of animals with normal nasal cavity histopathology) ([1]; Male, Mid dosage (60 mg/kg/day)) | Nasal cavities analyzed by histopathology ([1]; all exposure levels (20, 60, 180 mg/kg/day), nose-only inhalation, 90 min/day, 14 days) | % of goblet cells in nasal mucosa tissue [2]
1 | CC(O)COC[C@H]1O[C@@H]2O[C@H]3[C@H](O)[C@@H](O)[C@@H](O[C@H]4[C@H](O)[C@@H](O)[C@@H](O[C@H]5[C@H](O)[C@@H](O)[C@@H](O[C@H]6[C@H](O)[C@@H](O)[C@@H](O[C@H]7[C@H](O)[C@@H](O)[C@@H](O[C@H]8[C@H](O)[C@@H](O)[C@@H](O[C@H]1[C@H](O)[C@H]2O)O[C@@H]8COCC(C)O)O[C@@H]7COCC(C)O)O[C@@H]6COCC(C)O)O[C@@H]5COCC(C)O)O[C@@H]4COCC(C)O)O[C@@H]3COCC(C)O (stereo partly drawn) [HPBCD, 2-hydroxypropyl-beta-cyclodextrin] | 3 | 3 | 3 | 3 | 3 | 3 | normal | –
2 | 2-hydroxypropyl-γ-cyclodextrin [Hydroxypropyl-gamma-cyclodextrin] | – | – | – | – | – | – | – | 20%
